Measurements reported in patent US9611251B2, “Substituted piperidine compounds and their use as orexin receptor modulators” (Janssen Pharmaceutica NV, priority 2013, dated 2017).
pKi: −log10 of the molar value. Counter-ions that a name gives are not always drawn. Like-named read-outs stand apart in the source and are kept apart here.

Legend:
rat orexin 1 receptor = rat orexin 1 receptor (Rattus norvegicus, UniProt P56718); test: Rat orexin 1 receptor radioligand binding
Protocol: (§1) Data are analyzed using pc-Sandy macro and graphed on Graphpad Prism 5. For analysis, each concentration point is averaged from triplicate values and the averaged values are plotted on Graphpad Prism. The IC50 was determined by applying the following equation (GraphPad Prism 5.0, SanDiego) for one site competition where X=log (concentration) and Y=specific binding. Top denotes the total [^3H]-(1-(5-(2-fluoro-phenyl)-2-methyl-thiazol-4-yl)-1-((S)-2-(5-phenyl-(1,3,4)oxadiazol-2-ylmethyl)-pyrrolidin-1-yl)-methanone) binding, bottom denotes the nonspecific [^3H]-(1-(5-(2-fluoro-phenyl)-2-methyl-thiazol-4-yl)-1-((S)-2-(5-phenyl-(1,3,4)oxadiazol-2-ylmethyl)-pyrrolidin-1-yl)-methanone) binding. Graphpad Prism calculates Ki value from IC50 and the pre-determined Kd values for [^3H]-(1-(5-(2-fluoro-phenyl)-2-methyl-thiazol-4-yl)-1-((S)-2-(5-phenyl-(1,3,4)oxadiazol-2-ylmethyl)-pyrrolidin-1-yl)-methanone) and [3H]-EMPA. The Ki for each compound is then uploaded into 3DX. Each run comprises individual compounds in triplicate.
(§2) Rat and Human Orexin 1 Receptor Radioligand Binding Studies
After centrifugation (2K×G, 5 min at 4° C.), the supernatant was aspirated and the pellets frozen and stored at −80° C. […] Each cell pellet from a 15 cm plate was resuspended in 10 mL, stored on ice, and homogenized for 45 sec prior to addition to the reactions. Competition binding experiments in 96 well polypropylene plates were performed using [^3H]-(1-(5-(2-fluoro-phenyl)-2-methyl-thiazol-4-yl)-1-((S)-2-(5-phenyl-(1,3,4)oxadiazol-2-ylmethyl)-pyrrolidin-1-yl)-methanone) (Moraveck Corporation, specific activity=35.3 Ci/mmol), diluted to a 10 nM concentration in PBS (4 nM final). […] The final concentration of DMSO in the reactions is equal to or less than 0.1%. Total and nonspecific binding was determined in the absence and presence of 10 μM almorexant. The total volume of each reaction is 200 μL (20 μL of diluted compounds, 80 μL of [^3H]-(1-(5-(2-fluoro-phenyl)-2-methyl-thiazol-4-yl)-1-((S)-2-(5-phenyl-(1,3,4)oxadiazol-2-ylmethyl)-pyrrolidin-1-yl)-methanone) diluted in PBS and 100 μL of the cell suspension). […] The plates were washed 3 times by aspirating 30 ml PBS through the plates. Plates were dried in 55° C. oven for 60 min, scintillation fluid was added, and the radioactivity was counted on a Topcount (Packard).

human orexin 1 receptor = human orexin 1 receptor (Homo sapiens, UniProt O43613); test: Human orexin 1 receptor radioligand binding
Protocol: The in vitro affinity of the compounds of the invention for the rat/human orexin 1 and human orexin 2 receptors was determined by competitive radioligand binding using [^3H](1-(5-(2-fluoro-phenyl)-2-methyl-thiazol-4-yl)-1-((S)-2-(5-phenyl-(1,3,4)oxadiazol-2-ylmethyl)-pyrrolidin-1-yl)-methanone) (Langmead et al., 2004) and [^3H]EMPA (n-ethyl-2[96-methoxypyridin-3-yl)-(toluene-2-sulfonyl)-amino]-N-pyridin-3-ylmethyl acetamide), respectively (Langmead et al., 2004, British Journal of Pharmacology 141:340-346; Malherbe et al., 2004, British Journal of Pharmacology 156:1326-41).
as §1, §2
Human Embryonic Kidney 293 cells (HEK293) stably expressing rat orexin 1 receptor (Genebank accession number NM_001525) or Chinese ovary cells (CHO) stably expressing human orexin 1 receptor (Genebank accession number NM_001526) were grown to confluency in DMEM (Hyclone, cat #SH30022), 10% FBS, 1×Pen/Strep, 1× sodium pyruvate, 10 mM HEPES, 600 μg/mL G418 and DMEM/F12 (Gibco, Cat #11039), 10% FBS, 1×Pen/Strep, 600 μg/mL G418 media, respectively on 150 cm^2 tissue culture plates, washed with 5 mM EDTA in PBS (HyClone Dulbecco's Phosphate Buffered Saline 1× with Calcium and Magnesium, Cat #SH30264.01, hereafter referred to simply as PBS) and scraped into 50 ml tubes. After centrifugation (2K×G, 5 min at 4° C.), the supernatant was aspirated and the pellets frozen and stored at −80° C. Cells were resuspended in PBS in the presence of 1 tablet of protease inhibitor cocktail (Roche, Cat. #11836145001) per 50 mL. Each cell pellet from a 15 cm plate was resuspended in 10 mL, stored on ice, and homogenized for 45 sec prior to addition to the reactions. Competition binding experiments in 96 well polypropylene plates were performed using [^3H]-(1-(5-(2-fluoro-phenyl)-2-methyl-thiazol-4-yl)-1-((S)-2-(5-phenyl-(1,3,4)oxadiazol-2-ylmethyl)-pyrrolidin-1-yl)-methanone) (Moraveck Corporation, specific activity=35.3 Ci/mmol), diluted to a 10 nM concentration in PBS (4 nM final). […] The final concentration of DMSO in the reactions is equal to or less than 0.1%. Total and nonspecific binding was determined in the absence and presence of 10 μM almorexant. The total volume of each reaction is 200 μL (20 μL of diluted compounds, 80 μL of [^3H]-(1-(5-(2-fluoro-phenyl)-2-methyl-thiazol-4-yl)-1-((S)-2-(5-phenyl-(1,3,4)oxadiazol-2-ylmethyl)-pyrrolidin-1-yl)-methanone) diluted in PBS and 100 μL of the cell suspension). Reactions were run for 60 min at room temperature and terminated by filtration through GF/C filter plates (PerkinElmer, Cat. #6005174) presoaked in 0.3% polyethylenimine using the cell harvester (PerkinElmer Filtermate). The plates were washed 3 times by aspirating 30 ml PBS through the plates. Plates were dried in 55° C. oven for 60 min, scintillation fluid was added, and the radioactivity was counted on a Topcount (Packard).

human orexin 2 receptor = human orexin 2 receptor (Homo sapiens (Human), UniProt O43614); test: Human orexin 2 receptor radioligand binding ([3H]-EMPA); conditions: averages of 2-20 runs, read-out: hOX2 Ki
Protocol: as §1
Human Orexin 2 Receptor Radioligand Binding Studies
HEK293 stably expressing human orexin 2 receptor (Genebank accession number NM_001526) were grown to confluency in DMEM (Hyclone, cat #SH30022), 10% FBS, 1×Pen/Strep, 1× NaPyruvate, 10 mM HEPES, 600 ug/ml G418 media on 150 cm^2 tissue culture plates, washed with 5 mM EDTA in PBS (HyClone Dulbecco's Phosphate Buffered Saline 1× with Calcium and Magnesium, Cat #SH30264.01, hereafter referred to simply as PBS) and scraped into 50 ml tubes. After centrifugation (2K×G, 5 min at 4° C.), the supernatant was aspirated and the pellets frozen and stored at −80° C. […] Each cell pellet from a 15 cm plate was resuspended in 10 mL, stored on ice, and homogenized for 45 sec just prior to addition to the reactions. Competition binding experiments in 96 well polypropylene plates were performed using [^3H]-EMPA (Moraveck Corporation, specific activity=29.6 Ci/mmol), diluted to a 5 nM concentration in PBS (2 nM final concentration). […] The final concentration of DMSO in the reactions is equal to or less than 0.1%. Total and nonspecific binding was determined in the absence and presence of 10 μM almorexant. The total volume of each reaction is 200 μL (20 μL of diluted compounds, 80 μL of [^3H]-EMPA diluted in PBS and 100 μL of the cell suspension). […] The plates were washed 3 times by aspirating 30 ml PBS through the plates. Plates were dried in 55° C. oven for 60 min, scintillation fluid was added, and the radioactivity was counted on a Topcount (Packard).

[1] = rat orexin 1 receptor radioligand binding, averages of 2-20 runs, read-out: rOX1 Ki
[2] = human orexin 1 receptor radioligand binding, averages of 2-20 runs, read-out: hOX1 Ki

Chain of human orexin 2 receptor (O43614 whole entry): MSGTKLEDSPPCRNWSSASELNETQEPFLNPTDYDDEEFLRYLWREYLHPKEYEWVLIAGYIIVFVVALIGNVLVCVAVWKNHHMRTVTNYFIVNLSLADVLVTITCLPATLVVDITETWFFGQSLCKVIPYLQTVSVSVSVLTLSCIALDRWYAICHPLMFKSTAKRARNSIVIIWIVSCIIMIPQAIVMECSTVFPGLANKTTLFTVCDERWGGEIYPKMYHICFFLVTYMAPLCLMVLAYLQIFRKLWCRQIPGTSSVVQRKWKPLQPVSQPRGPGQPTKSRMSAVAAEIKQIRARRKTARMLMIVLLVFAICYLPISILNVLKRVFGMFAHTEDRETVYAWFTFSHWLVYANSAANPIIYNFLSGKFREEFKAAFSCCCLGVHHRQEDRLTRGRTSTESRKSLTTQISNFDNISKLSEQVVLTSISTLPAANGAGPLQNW

Row | pKi (rat orexin 1 receptor; [1]) | pKi (human orexin 1 receptor; [2]) | pKi (human orexin 2 receptor) | SMILES | pKi (rat orexin 1 receptor) | pKi (human orexin 1 receptor)
1 | – | – | – | Cc1ccc(-c2ncco2)c(C(=O)N2CCC[C@@H](Nc3ccc(C(F)(F)F)cn3)[C@@H]2C)n1 (racemic) [Example 22, (±)-trans-(2-methyl-3-((5-(trifluoromethyl)pyridin-2-yl)amino)piperidin-1-yl)(6-methyl-3-(oxazol-2-yl)pyridin-2-yl)methanone hydrochloride] | 7.44 | 7.68
2 | 7.03 | 6.75 | 5.28 | COc1ccc(C(=O)N2CCC[C@@H](Nc3ccc(Cl)cn3)[C@@H]2C)c(-n2nccn2)c1 (relative stereo) [Example 181, ((2S*,3R*)-3-((5-chloropyridin-2-yl)amino)-2-methylpiperidin-1-yl)(4-methoxy-2-(2H-1,2,3-triazol-2-yl)phenyl)methanone] | – | –
3 | 7.03 | 6.83 | – | Cc1cnc(C(=O)N2CCC[C@@H](Nc3cnc(Cl)cn3)[C@@H]2C)c(-n2nccn2)c1 (relative stereo) [Example 182, ((2S*,3R*)-3-((5-chloropyrazin-2-yl)amino)-2-methylpiperidin-1-yl)(5-methyl-3-(2H-1,2,3-triazol-2-yl)pyridin-2-yl)methanone] | – | –
4 | 8.15 | 8.22 | 6.72 | COc1ccc(-n2nccn2)c(C(=O)N2CCC[C@@H](Nc3cnc(C(F)(F)F)cn3)[C@@H]2C)c1 (relative stereo) [Example 184, (5-methoxy-2-(2H-1,2,3-triazol-2-yl)phenyl)((2S*,3R*)-2-methyl-3-((5-(trifluoromethyl)pyrazin-2-yl)amino)piperidin-1-yl)methanone] | – | –
5 | 7.70 | 7.41 | – | Cc1cnc(C(=O)N2CCC[C@@H](N(C)c3nc4ccccc4o3)[C@@H]2C)c(-n2nccn2)c1 (relative stereo) [Example 187, ((2S*,3R*)-3-(benzo[d]oxazol-2-yl(methyl)amino)-2-methylpiperidin-1-yl)(5-methyl-3-(2H-1,2,3-triazol-2-yl)pyridin-2-yl)methanone] | – | –
6 | 7.04 | 7.00 | < 5.00 | Cc1ccc(C(=O)N2CCC[C@@H](N(C)c3ccc(C(F)(F)F)cn3)[C@@H]2C)c(-n2nccn2)n1 (relative stereo) [Example 188, (6-methyl-2-(2H-1,2,3-triazol-2-yl)pyridin-3-yl)((2S*,3R*)-2-methyl-3-(methyl(5-(trifluoromethyl)pyridin-2-yl)amino)piperidin-1-yl)methanone] | – | –
7 | 8.15 | 8.30 | 6.76 | C[C@H]1[C@H](Nc2ccc(C(F)(F)F)cn2)CCCN1C(=O)c1cccc(F)c1-c1ncccn1 (relative stereo) [Example 189, (3-fluoro-2-(pyrimidin-2-yl)phenyl)((2S*,3R*)-2-methyl-3-((5-(trifluoromethyl)pyridin-2-yl)amino)piperidin-1-yl)methanone] | – | –
8 | 7.59 | 7.74 | – | Cc1noc(-c2cc(F)ccc2C(=O)N2CCC[C@@H](Nc3ccc(C(F)(F)F)cn3)[C@@H]2C)n1 (relative stereo) [Example 190, (4-fluoro-2-(3-methyl-1,2,4-oxadiazol-5-yl)phenyl)((2S*,3R*)-2-methyl-3-((5-(trifluoromethyl)pyridin-2-yl)amino)piperidin-1-yl)methanone] | – | –
9 | 7.92 | 8.05 | 6.38 | C[C@H]1[C@H](Nc2ccc(C(F)(F)F)cn2)CCCN1C(=O)c1ccc(F)cc1-c1ncccn1 (relative stereo) [Example 191, (4-fluoro-2-(pyrimidin-2-yl)phenyl)((2S*,3R*)-2-methyl-3-((5-(trifluoromethyl)pyridin-2-yl)amino)piperidin-1-yl)methanone] | – | –
10 | 7.57 | 7.60 | 6.27 | C[C@H]1[C@H](Nc2ccc(C(F)(F)F)cn2)CCCN1C(=O)c1ccc(F)cc1-n1nccn1 (relative stereo) [Example 192, (4-fluoro-2-(2H-1,2,3-triazol-2-yl)phenyl)((2S*,3R*)-2-methyl-3-((5-(trifluoromethyl)pyridin-2-yl)amino)piperidin-1-yl)methanone] | – | –
11 | 6.92 | 7.04 | 5.60 | C[C@H]1[C@H](Nc2ncc(C(F)(F)F)cn2)CCCN1C(=O)c1ccc(F)cc1-n1nccn1 (relative stereo) [Example 198, (4-fluoro-2-(2H-1,2,3-triazol-2-yl)phenyl)((2S*,3R*)-2-methyl-3-((5-(trifluoromethyl)pyrimidin-2-yl)amino)piperidin-1-yl)methanone] | – | –
12 | 7.62 | 7.68 | – | Cc1ccc(C(=O)N2CCC[C@@H](Nc3ccc(C(F)(F)F)cn3)[C@@H]2C)c(-n2nccn2)n1 [Example 98, (6-methyl-2-(2H-1,2,3-triazol-2-yl)pyridin-3-yl)((2S,3R)-2-methyl-3-((5-(trifluoromethyl)pyridin-2-yl)amino)piperidin-1-yl)methanone] | – | –
